# Test results: paper PMC5608406, “In vivo activation of latent HIV with a synthetic bryostatin analog effects both latent cell "kick" and "kill" in strategy for virus eradication” (PLoS Pathogens, 2017)
# What was measured:
# [1] = test system: C57/bl6 mice; test: In vivo acute toxicity / tolerability in C57/bl6 mice; conditions: intraperitoneal injection, in some cases
# Procedure: C57/bl6 mice were obtained from the UCLA Department of Radiation Oncology. Compounds were suspended in DMSO and then further diluted in RF10 media to produce a final volume of 500 μL (containing a maximum 4% DMSO). These 500 μL volumes were administered to mice by intraperitoneal injection. Mice were monitored for acute toxicities and then sacrificed at the indicated times. Spleens were removed and disaggregated using a steel mesh, and then filtered through a 40 μm filter to produce a single-cell suspension. The resultant splenocytes were then stained for flow cytometry to analyze surface expression of relevant markers.
# [2] = biological target: T1, PKC gamma (Homo sapiens, UniProt P05129); test: PKC binding assay, competition with 3H-PDBu
# T1 construct: purchased Invitrogen
# Procedure: (§1) This entails a glass-fiber filtration method to determine bound radioligand.
# (§2) To a polypropylene vial was added Tris-HCl (pH 7.4, 1 M, 1 mL), KCl (1 M, 2 mL), CaCl2 (0.1 M, 30 μL), and bovine serum albumin (40 mg, from Sigma). This mixture was diluted to 20 mL with deionized H2O, and mixed gently. The buffer was stored on ice until use. The final concentration of these constituents are shown in S2 Table.
# (§3) For every 2 assays, 3.5 mg phosphatidylserine (Avanti Polar Lipids, porcine, obtained as a solution in CHCl3) was isolated by removing chloroform under a stream of nitrogen followed by reduced pressure. The solid PS was suspended as vesicles in binding assay buffer (3.5 mL) by sonicating (Branson Sonifier 250, power = 2, 50% duty cycle) six times for 30 s with a 30 s rest between sonications. The resulting cloudy mixture (1 mg/mL PS) was stored on ice until use.
# (§4) Assay Protein Kinase C (PKC) was prepared by dissolving a 4 μg aliquot of the indicated recombinant human PKC isoform (Invitrogen) into 11.6 mL of binding assay buffer. The KD values for all 7 isoforms were determined experimentally. The diluted PKC was stored on ice for immediate use. This amount is sufficient for 2 assays with room for error.
# (§5) This 500 nM stock solution was further diluted in DMSO to 30 nM for use in assays. The 500 nM and 30 nM stock solutions were stored frozen in DMSO at −20°C until use. […] Seven analog concentrations were used to define the inhibition curve.
# (§6) The resulting solution was vortexed to mix and stored on ice.
# (§7) Triplicate data points were obtained for each analog concentration. For each data point, 280 μL of Master Mix Solution and test compound at the given concentration (20 μL) were added to a polypropylene tube. […] Counts per minute (cpm) were averaged for each triplicate dilution.
# [3] = biological target: T2, PKC alpha (Homo sapiens, UniProt P17252); test: PKC binding assay, competition with 3H-PDBu
# T2 construct: purchased Invitrogen
# Procedure: as §1, §2, §3, §4, §5, §6, §7
# [4] = biological target: T3, PKC epsilon (Homo sapiens, UniProt Q02156); test: PKC binding assay, competition with 3H-PDBu
# T3 construct: purchased Invitrogen
# T3 sequence (Q02156 1-737): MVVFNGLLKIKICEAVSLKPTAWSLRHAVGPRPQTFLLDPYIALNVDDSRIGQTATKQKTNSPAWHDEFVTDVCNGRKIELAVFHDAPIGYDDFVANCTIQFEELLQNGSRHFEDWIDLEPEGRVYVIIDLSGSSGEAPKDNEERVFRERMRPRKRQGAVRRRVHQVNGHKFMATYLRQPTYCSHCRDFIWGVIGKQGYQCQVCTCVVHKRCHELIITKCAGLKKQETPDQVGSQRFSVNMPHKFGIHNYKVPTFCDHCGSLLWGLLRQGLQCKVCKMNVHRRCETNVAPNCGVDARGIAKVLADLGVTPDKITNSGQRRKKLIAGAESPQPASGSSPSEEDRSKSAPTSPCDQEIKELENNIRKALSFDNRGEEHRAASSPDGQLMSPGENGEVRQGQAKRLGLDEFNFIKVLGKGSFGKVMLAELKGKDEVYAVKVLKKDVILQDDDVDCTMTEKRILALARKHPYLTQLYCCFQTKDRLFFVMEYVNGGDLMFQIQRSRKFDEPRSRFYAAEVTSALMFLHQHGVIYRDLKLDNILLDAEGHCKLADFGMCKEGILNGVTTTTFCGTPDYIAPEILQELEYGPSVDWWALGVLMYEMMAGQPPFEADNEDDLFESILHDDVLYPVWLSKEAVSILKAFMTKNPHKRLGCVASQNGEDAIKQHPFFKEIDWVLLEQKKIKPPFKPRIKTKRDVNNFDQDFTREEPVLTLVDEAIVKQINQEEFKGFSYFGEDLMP
# Procedure: as §1, §2, §3, §4, §5, §6, §7
# [5] = biological target: T4, PKC delta (Homo sapiens, UniProt Q05655); test: PKC binding assay, competition with 3H-PDBu
# T4 construct: purchased Invitrogen
# T4 sequence (Q05655 whole entry): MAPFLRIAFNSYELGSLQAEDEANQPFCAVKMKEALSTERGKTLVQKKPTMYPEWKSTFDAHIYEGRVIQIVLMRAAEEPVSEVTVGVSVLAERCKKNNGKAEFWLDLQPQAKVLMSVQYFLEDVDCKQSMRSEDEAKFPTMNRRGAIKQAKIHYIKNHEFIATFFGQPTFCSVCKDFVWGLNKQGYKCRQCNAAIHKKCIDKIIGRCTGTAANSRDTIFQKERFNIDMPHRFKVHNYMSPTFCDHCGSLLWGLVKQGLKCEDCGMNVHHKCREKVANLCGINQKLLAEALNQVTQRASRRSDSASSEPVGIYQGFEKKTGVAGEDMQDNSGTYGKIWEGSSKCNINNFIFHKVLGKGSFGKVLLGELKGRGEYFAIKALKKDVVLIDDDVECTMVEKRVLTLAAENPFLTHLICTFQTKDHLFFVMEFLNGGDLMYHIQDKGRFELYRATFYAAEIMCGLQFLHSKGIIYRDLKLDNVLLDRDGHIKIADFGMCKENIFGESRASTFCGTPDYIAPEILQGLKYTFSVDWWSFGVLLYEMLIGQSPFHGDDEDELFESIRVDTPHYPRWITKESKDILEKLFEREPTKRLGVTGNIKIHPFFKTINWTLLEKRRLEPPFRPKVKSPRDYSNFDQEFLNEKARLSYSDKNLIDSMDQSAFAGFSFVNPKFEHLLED
# Procedure: as §1, §2, §3, §4, §5, §6, §7
# [6] = biological target: T5, PKC beta I (Homo sapiens, UniProt P05771); test: PKC binding assay, competition with 3H-PDBu
# T5 construct: purchased Invitrogen
# T5 sequence (P05771 whole entry): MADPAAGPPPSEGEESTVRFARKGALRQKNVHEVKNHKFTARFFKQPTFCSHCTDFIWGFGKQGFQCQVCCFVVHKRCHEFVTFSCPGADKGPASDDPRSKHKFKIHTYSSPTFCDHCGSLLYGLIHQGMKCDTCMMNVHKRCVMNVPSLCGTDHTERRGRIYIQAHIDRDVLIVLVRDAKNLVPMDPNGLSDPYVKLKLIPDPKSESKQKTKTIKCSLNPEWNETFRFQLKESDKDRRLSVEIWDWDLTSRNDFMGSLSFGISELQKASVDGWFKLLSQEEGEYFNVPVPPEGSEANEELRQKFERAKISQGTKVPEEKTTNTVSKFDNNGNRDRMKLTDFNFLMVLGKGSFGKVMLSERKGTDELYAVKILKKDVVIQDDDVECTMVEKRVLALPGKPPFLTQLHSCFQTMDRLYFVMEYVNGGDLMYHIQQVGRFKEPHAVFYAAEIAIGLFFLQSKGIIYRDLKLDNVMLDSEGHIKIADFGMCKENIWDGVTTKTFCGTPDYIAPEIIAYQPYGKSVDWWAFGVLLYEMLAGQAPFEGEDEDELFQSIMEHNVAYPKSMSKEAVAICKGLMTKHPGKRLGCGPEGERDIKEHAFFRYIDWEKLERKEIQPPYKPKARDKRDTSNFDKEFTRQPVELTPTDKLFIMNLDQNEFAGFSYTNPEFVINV
# Procedure: as §1, §2, §3, §4, §5, §6, §7
# [7] = biological target: T6, PKC theta (Homo sapiens, UniProt Q04759); test: PKC binding assay, competition with 3H-PDBu
# T6 construct: purchased Invitrogen
# T6 sequence (Q04759 whole entry): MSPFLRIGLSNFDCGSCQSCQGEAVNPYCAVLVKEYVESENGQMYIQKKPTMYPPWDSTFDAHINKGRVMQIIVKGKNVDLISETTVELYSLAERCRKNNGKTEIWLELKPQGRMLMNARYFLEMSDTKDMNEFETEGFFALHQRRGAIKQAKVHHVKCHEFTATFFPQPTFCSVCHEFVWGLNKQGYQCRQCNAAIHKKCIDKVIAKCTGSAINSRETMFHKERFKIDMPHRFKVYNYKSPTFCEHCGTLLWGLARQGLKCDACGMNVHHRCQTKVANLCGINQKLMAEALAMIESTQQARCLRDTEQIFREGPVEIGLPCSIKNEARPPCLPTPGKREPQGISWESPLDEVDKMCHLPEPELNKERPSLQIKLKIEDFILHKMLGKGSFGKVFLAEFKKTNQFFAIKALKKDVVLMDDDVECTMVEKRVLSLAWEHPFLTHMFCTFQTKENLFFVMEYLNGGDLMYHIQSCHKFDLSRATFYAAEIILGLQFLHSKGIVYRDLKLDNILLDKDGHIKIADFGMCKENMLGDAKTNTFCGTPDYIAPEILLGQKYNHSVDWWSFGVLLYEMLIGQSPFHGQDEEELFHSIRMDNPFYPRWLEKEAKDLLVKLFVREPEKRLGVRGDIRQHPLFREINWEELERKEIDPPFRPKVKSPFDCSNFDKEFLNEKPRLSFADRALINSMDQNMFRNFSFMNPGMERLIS
# Procedure: as §1, §2, §3, §4, §5, §6, §7
# [8] = biological target: T7, PKC eta (Homo sapiens, UniProt P24723); test: PKC binding assay, competition with 3H-PDBu
# T7 construct: purchased Invitrogen
# T7 sequence (P24723 whole entry): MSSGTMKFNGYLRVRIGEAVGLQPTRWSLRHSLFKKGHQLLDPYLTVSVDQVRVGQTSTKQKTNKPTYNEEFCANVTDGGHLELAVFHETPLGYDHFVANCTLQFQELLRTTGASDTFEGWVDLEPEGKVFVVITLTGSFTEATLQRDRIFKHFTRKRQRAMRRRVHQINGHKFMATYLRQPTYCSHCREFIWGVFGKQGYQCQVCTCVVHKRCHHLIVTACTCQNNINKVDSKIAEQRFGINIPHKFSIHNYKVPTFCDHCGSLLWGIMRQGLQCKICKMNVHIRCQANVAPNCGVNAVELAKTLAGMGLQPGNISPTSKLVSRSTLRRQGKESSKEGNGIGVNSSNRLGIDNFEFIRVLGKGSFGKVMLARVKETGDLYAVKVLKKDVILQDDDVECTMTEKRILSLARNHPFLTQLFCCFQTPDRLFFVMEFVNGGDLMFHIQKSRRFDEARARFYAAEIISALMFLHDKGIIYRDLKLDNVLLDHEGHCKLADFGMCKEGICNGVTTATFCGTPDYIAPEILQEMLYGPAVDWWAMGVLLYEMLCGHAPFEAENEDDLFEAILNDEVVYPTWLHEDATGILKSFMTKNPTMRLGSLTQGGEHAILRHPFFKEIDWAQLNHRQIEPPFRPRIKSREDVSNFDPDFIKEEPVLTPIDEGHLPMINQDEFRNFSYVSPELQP
# Procedure: as §1, §2, §3, §4, §5, §6, §7
structure (smiles),measurement,setting,value
C=C1C[C@H]2C[C@]3(O)O[C@H](C[C@@H](O)CC(=O)O[C@@H](CO)C[C@@H]4C/C(=C\C(=O)OC)[C@H](OC(=O)CCCCCCC)[C@@](O)(O4)C(C)(C)/C=C/[C@@H](C1)O2)C[C@H](OC(C)=O)C3(C)C [SUW133],tolerated dose,[1],up to 30 μg per animal
same,Ki,[2],5.6 nM
same,Ki,[3],1.8 nM
same,Ki,[4],5.8 nM
same,Ki,[5],2 nM
same,Ki,[6],6.3 nM
same,Ki,[7],2 nM
same,Ki,[8],6.4 nM
